Test results published in patent US9051325B2, “Bicyclic [5,6] imidazo pyrimodone compounds for use in the treatment of diseases or conditions mediated by Lp-PLA2” (GlaxoSmithKline Intellectual Property Development Limited, priority 2013, dated 2015).

Molecular target: T1, Lp-PLA2 in human plasma (Homo sapiens, UniProt Q13093)
T1 construct: from tissue; host or cells: pooled human plasma
T1 sequence (Q13093 22-441): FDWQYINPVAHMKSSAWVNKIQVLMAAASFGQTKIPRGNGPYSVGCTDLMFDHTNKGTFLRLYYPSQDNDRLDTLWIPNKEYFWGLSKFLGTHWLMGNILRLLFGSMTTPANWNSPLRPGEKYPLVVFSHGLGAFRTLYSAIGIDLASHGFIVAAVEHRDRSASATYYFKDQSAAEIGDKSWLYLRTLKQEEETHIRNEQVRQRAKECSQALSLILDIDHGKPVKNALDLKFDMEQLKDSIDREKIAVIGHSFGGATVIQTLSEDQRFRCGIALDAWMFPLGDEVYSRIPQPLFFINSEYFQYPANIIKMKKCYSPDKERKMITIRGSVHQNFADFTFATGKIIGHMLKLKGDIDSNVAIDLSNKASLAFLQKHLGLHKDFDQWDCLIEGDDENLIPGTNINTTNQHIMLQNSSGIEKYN
Test: Lp-PLA2 human plasma assay (Thio-PAF assay)
Type: biochemical
Settings: pooled human plasma; lower bounds; read-out: pIC50 values in the thio-PAF assay (converted)
Source text: (3) Lipoprotein-Associated Phospholipase A2 (Lp-PLA2) Human Plasma Assay (Also Referred to as “Thio-PAF assay”)
The human plasma assay utilizes a thioester analog of PAF (phosphatidylcholine), where hydrolysis yields to the formation of a phospholipid containing a free thiol group. The amount of thiol is quantitated continuously by reacting with CPM (7-diethylamino-3-(4′-maleimidylphenyl)-4-methylcoumarin), a maleimide which increases in fluoresence after Michael addition of thiols. This assay may detect the activity of Lp-PLA2 in human plasma, as determined by specific inhibition by Lp-PLA2 inhibitors.
The thio-PAF assay was run as a quenched 15 μL assay. Compounds source plate was prepared by making 1:3 (by volume) serial dilution of the compounds into pure DMSO on 384-well microplate. 0.01 μL of compounds on compound source plate were transferred to 384 well Greiner 784076 (black) low-volume plates by ECHO liquid dispenser. 8 μL pooled human plasma, which was previously aliquoted and frozen, was added. Plates were centrifuged for 10 sec at 500 rpm. After 30 minutes preincubation, 2 μL of substrate solution comprising 2.5 mM 2-thio-PAF [from ethanol stock], 32 μM CPM [from a DMSO stock] and 3.2 mM NEM (N-ethylmaleimide) [made fresh daily in DMSO] in assay buffer of 50 mM HEPES, pH 7.4, 150 mM NaCl, 1 mM CHAPS was added to 384 well Greiner 784076 (black) low-volume plates by BRAVO liquid handling station. After 2 mins, reaction was quenched with 5 μL of 5% aqueous trifluoroacetic acid (TFA). Plates were covered to protect from light and incubated for 40 min at room temperature. Plates were read at ex: 380/em: 485 using-Envision microplate reader. PIC50 data, curve and QC analysis were conducted by using XLFit module in Excel.

IC50 [nM] | Structure (SMILES)
≤ 100 | C[C@@H]1Cn2c(cc(OCc3cccc(C#N)c3)nc2=O)N1C [Example E33, (R)-3-(((1,2-dimethyl-5-oxo-1,2,3,5-tetrahydroimidazo[1,2-c]pyrimidin-7-yl)oxy)methyl)benzonitrile]
≤ 100 | CN1c2cc(OCCC3CCCC3)nc(=O)n2CC1(C)C [Example E52, 7-(2-cyclopentylethoxy)-1,2,2-trimethyl-2,3-dihydroimidazo[1,2-c]pyrimidin-5(1H)-one]
≤ 100 | CN1c2cc(OCCc3ccc(F)c(F)c3)nc(=O)n2CC1(C)C [Example E117, 7-(3,4-difluorophenethoxy)-1,2,2-trimethyl-2,3-dihydroimidazo[1,2-c]pyrimidin-5(1H)-one]
≤ 100 | C[C@H]1Cn2c(cc(OCc3cccc(C#N)c3)nc2=O)N1C [Example E72, (S)-3-(((1,2-dimethyl-5-oxo-1,2,3,5-tetrahydroimidazo[1,2-c]pyrimidin-7-yl)oxy)methyl)benzonitrile]
≤ 100 | CN1c2cc(OCc3cc(F)c(F)cc3F)nc(=O)n2CC1(C)C [Example E115, 1,2,2-trimethyl-7-((2,4,5-trifluorobenzyl)oxy)-2,3-dihydroimidazo[1,2-c]pyrimidin-5(1H)-one]

Molecular target: T2, recombinant human Lp-PLA2 (Homo sapiens, UniProt Q13093)
T2 sequence (Q13093 22-441): T1 sequence (Q13093 22-441)
Test: Recombinant human Lp-PLA2 assay (rhLp-PLA2, PED6 assay)
Type: biochemical
Settings: lower bounds; read-out: pIC50 values in the PED6 assay (converted)
Source text: (1) Recombinant Human Lp-PLA2 Assay (rhLp-PLA2) (Also Referred to as “PED6” Assay)
N-((6-(2,4-dinitrophenyl)amino)-hexanoyl)-2-(4,4-difluoro-5,7-dimethyl-4-bora-3a,4a-diaza-s-indacene-3-pentanoyl)-1-hexadecanoyl-sn-glycero-3-phosphoethanolamine, triethylammonium salt (PED6) is a commercially available fluorescently-labeled phospholipid, which is commercially available from Invitrogene and Molecular Probes. There is a quenching […] and a Bodipy fluorescein (FL) group in the sn2 position. Upon cleavage with Lp-PLA2, the Bodipy FL group is liberated and then may result in an increase in fluorescence. Inhibitors of Lp-PLA2 therefore prevent this cleavage and no fluorescent increase is observed.
The PED6 assay was run as an unquenched 10 μL assay. The source plate containing the compounds to be tested was prepared by making 1:3 (by volume) serial dilution of the compounds within DMSO on 384-well microplate. Then, 0.01 μL of the compounds on compound source plate were transferred into 384 well Greiner 784076 (black) plates using ECHO liquid dispenser. 5 μL of recombinant human Lp-PLA2 enzyme (4 nM (or […]) rhLp-PLA2 in assay buffer of 50 mM HEPES, pH 7.4, 150 mM NaCl, 1 mM CHAPS) was added to each well of the plate. Plates were centrifuged for 10 sec at 500 rpm. After 30 minutes preincubation, 5 μL of substrate ([…] PED6 [from 5 mM DMSO stock] in assay buffer of 50 mM HEPES, pH 7.4, 150 mM NaCl, 1 mM CHAPS) was added to 384 well Greiner 784076 (black) plates. Plates were centrifuged for 10 sec at 500 rpm. The plate was covered to protect it from light and incubated for 20 min at room temperature. The plates were read for fluorescence intensity at ex: 480/em: 540 using ViewLux microplate imager for Envision spectrofluoroimeters pIC50 data, curve and QC analysis was conducted by using XL fit module in Excel.

IC50 [nM] | Structure (SMILES)
≤ 10 | C[C@H]1Cn2c(cc(OCc3ccc(Oc4cccc(F)c4)c(F)c3)nc2=O)N1 [Example E28, (S)-7-((3-fluoro-4-(3-fluorophenoxy)benzyl)oxy)-2-methyl-2,3-dihydroimidazo[1,2-c]pyrimidin-5(1H)-one]
≤ 1 | C[C@H]1Cn2c(cc(OCc3ccc(Oc4ccc(C(F)(F)F)nc4)c(F)c3)nc2=O)N1 [Example E62, (S)-7-((3-fluoro-4-((6-(trifluoromethyl)pyridin-3-yl)oxy)benzyl)oxy)-2-methyl-2,3-dihydroimidazo[1,2-c]pyrimidin-5(1H)-one]
≤ 1 | C[C@H]1Cn2c(cc(OCc3cc(F)c(Oc4cccc(F)c4)c(F)c3)nc2=O)N1C [Example E76, (S)-7-((3,5-difluoro-4-(3-fluorophenoxy)benzyl)oxy)-1,2-dimethyl-2,3-dihydroimidazo[1,2-c]pyrimidin-5(1H)-one]
≤ 10 | CN1c2cc(OCc3cc(F)cc(Cl)c3)nc(=O)n2CC1(C)C [Example E125, 7-((3-chloro-5-fluorobenzyl)oxy)-1,2,2-trimethyl-2,3-dihydroimidazo[1,2-c]pyrimidin-5(1H)-one]
≤ 10 | C[C@H]1Cn2c(cc(OCc3ccc(F)c(F)c3)nc2=O)N1 [Example E9, (S)-7-((3,4-difluorobenzyl)oxy)-2-methyl-2,3-dihydroimidazo[1,2-c]pyrimidin-5(1H)-one]
≤ 10 | C[C@H]1Cn2c(cc(OCc3ccc(Oc4ccc(F)cc4)c(F)c3)nc2=O)N1 [Example E130, (S)-7-((3-fluoro-4-(4-fluorophenoxy)benzyl)oxy)-2-methyl-2,3-dihydroimidazo[1,2c]pyrimidin-5(1H)-one]
≤ 10 | CN1c2cc(OCc3cc(F)ccc3F)nc(=O)n2CC1(C)C [Example E92, 7-((2,5-difluorobenzyl)oxy)-1,2,2-trimethyl-2,3-dihydroimidazo[1,2-c]pyrimidin-5(1H)-one]
≤ 10 | [2H]C([2H])(Oc1cc2n(c(=O)n1)C[C@H](C)N2C)c1ccc(F)c(F)c1 [Example E22, (S)-7-(dideutero(3,4-difluorophenyl)methoxy)-1,2-dimethyl-2,3-dihydroimidazo[1,2-c]pyrimidin-5(1H)-one]
≤ 1 | C[C@H]1Cn2c(cc(OCc3ccc(Oc4ccc(C(F)(F)F)nc4)c(F)c3)nc2=O)N1C [Example E6, (S)-7-((3-fluoro-4-((6-(trifluoromethyl)pyridin-3-yl)oxy)benzyl)oxy)-1,2-dimethyl-2,3-dihydroimidazo[1,2-c]pyrimidin-5(1H)-one]
≤ 10 | N#Cc1cc(COc2cc3n(c(=O)n2)CCN3C2CC2)ccc1Oc1ccc(F)c(F)c1 [Example E118, 5-(((1-cyclopropyl-5-oxo-1,2,3,5-tetrahydroimidazo[1,2-c]pyrimidin-7-yl)oxy)methyl)-2-(3,4-difluorophenoxy)benzonitrile]
≤ 10 | CN1c2cc(OCc3cccc(Cl)c3)nc(=O)n2CC1(C)C [Example E21, 7-((3-chlorobenzyl)oxy)-1,2,2-trimethyl-2,3-dihydroimidazo[1,2-c]pyrimidin-5(1H)-one]
≤ 10 | C[C@H]1Cn2c(cc(OCc3ccc(Oc4cncc(C#N)c4)c(F)c3)nc2=O)N1C [Example E24, (S)-5-(4-(((1,2-dimethyl-5-oxo-1,2,3,5-tetrahydroimidazo[1,2-c]pyrimidin-7-yl)ox-y)methyl)-2-fluorophenoxy)nicotinonitrile]
≤ 10 | C[C@H]1Cn2c(cc(OCc3ccc(Oc4ccc(F)cc4)c(F)c3)nc2=O)N1C [Example E94, (S)-7-((3-fluoro-4-(4-fluorophenoxy)benzyl)oxy)-1,2-dimethyl-2,3-dihydroimidazo[1,2-c]pyrimidin-5(1H)-one]
≤ 1 | C[C@H]1Cn2c(cc(OCc3cc(F)c(Oc4ccc(F)c(F)c4)c(F)c3)nc2=O)N1C [Example E126, (S)-7-((4-(3,4-difluorophenoxy)-3,5-difluorobenzyl)oxy)-1,2-dimethyl-2,3-dihydroimidazo[1,2-c]pyrimidin-5(1H)-one]
≤ 10 | O=c1nc(OCc2ccc(Oc3ccc(Cl)c(C(F)(F)F)c3)cc2)cc2n1CCN2C1CC1 [Example E17, 7-((4-(4-chloro-3-(trifluoromethyl)phenoxy)benzyl)oxy)-1-cyclopropyl-2,3-dihydroimidazo[1,2-c]pyrimidin-5(1H)-one]
≤ 10 | [2H]C([2H])(Oc1cc2n(c(=O)n1)C[C@H](C)N2C)c1cc(F)c(F)c(F)c1 [Example E86, (S)-7-(dideutero(3,4,5-trifluorophenyl)methoxy)-1,2-dimethyl-2,3-dihydroimidazo[1,2-c]pyrimidin-5(1H)-one]
≤ 10 | C[C@H]1Cn2c(cc(OCc3ccc(Oc4cccc(F)c4)c(F)c3)nc2=O)N1C [Example E27, (S)-7-((3-fluoro-4-(3-fluorophenoxy)benzyl)oxy)-1,2-dimethyl-2,3-dihydroimidazo-[1,2-c]pyrimidin-5(1H)-one]
≤ 10 | CN1c2cc(OCc3ccc(Cl)c(F)c3)nc(=O)n2CC1(C)C [Example E36, 7-((4-chloro-3-fluorobenzyl)oxy)-1,2,2-trimethyl-2,3-dihydroimidazo[1,2-c]pyrimidin-5(1H)-one]
≤ 1 | C[C@H]1Cn2c(cc(OCc3ccc(Oc4ccc(F)cc4)c(C#N)c3)nc2=O)N1C [Example E57, (S)-5-(((1,2-dimethyl-5-oxo-1,2,3,5-tetrahydroimidazo[1,2-c]pyrimidin-7-yl)oxy)methyl)-2-(4-fluorophenoxy)benzonitrile]
